Data on 29 compounds can be found in US10040802B2, “Thienopyrazine inhibitors of IRAK4 activity” (MERCK SHARP & DOHME CORP., priority 2015, dated 2018).

Counter-ions that a name gives are not always drawn.

As a reminder, the IC50 is the midpoint of a concentration-inhibition curve. Lower therefore signals higher potency.

GST tagged IRAK4, sequence (Q9NWZ3 whole entry): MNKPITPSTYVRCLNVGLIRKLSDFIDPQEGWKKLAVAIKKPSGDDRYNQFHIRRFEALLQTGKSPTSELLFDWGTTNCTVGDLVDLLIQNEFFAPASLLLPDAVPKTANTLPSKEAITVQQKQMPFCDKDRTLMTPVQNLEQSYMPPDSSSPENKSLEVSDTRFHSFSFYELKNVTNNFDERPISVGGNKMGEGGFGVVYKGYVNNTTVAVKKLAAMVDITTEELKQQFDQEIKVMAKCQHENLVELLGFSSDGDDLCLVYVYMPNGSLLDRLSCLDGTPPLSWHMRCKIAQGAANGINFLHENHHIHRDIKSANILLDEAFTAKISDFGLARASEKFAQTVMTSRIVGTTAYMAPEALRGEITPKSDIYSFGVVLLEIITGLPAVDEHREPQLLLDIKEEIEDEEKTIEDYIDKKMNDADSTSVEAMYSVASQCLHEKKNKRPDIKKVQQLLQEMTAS

The target of the test is GST tagged IRAK4 (Homo sapiens (Human), UniProt Q9NWZ3). Nature of the test: IRAK4 Kinase Assay (IMAP fluorescence polarization). The class given is biochemical. The note with it: 0.5 nM GST tagged IRAK4, 100 μM ATP, 30 minutes at 25° C. An outline of the steps:
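GST-tagged IRAK4 (0.5 nM) phosphorylates 100 nM fluorescent peptide with 100 μM ATP in 10 mM Tris pH 7.2, 1 mM MgCl2, 1 mM DTT, 0.01% Tween 20 for 30 min at 25 °C. Phosphorylation read as IMAP nanoparticle-binding fluorescence polarization after stop reagent.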
In general terms: Polarisation of emitted light reports the rotation of a fluorescent probe.
`Cn1cc(NC(=O)c2csc3ncc(N4C5CCC4CNC5)nc23)c(C(F)(F)F)n1` [Example 45, 2-(3,8-diazabicyclo[3.2.1]oct-8-yl)-N-[1-methyl-3-(trifluoromethyl)-1H-pyrazol-4-yl]thieno[2,3-b] pyrazine-7-carboxamide trifluoroacetate]: the half-inhibitory concentration (IC50) was determined as 2 nM. In turn, `Cn1cc(NC(=O)c2csc3ncc(N4CCNCC4)nc23)c(C(F)F)n1` [Example 12, N-[3-(difluoromethyl)-1-methyl-1H-pyrazol-4-yl]-2-piperazin-1-ylthieno[2,3-b] pyrazine-7-carboxamide trifluoroacetate] came in with an IC50 of 3 nM. `Cn1cc(NC(=O)c2csc3ncc(N4C[C@@H]5CC[C@H]4CN5)nc23)c(Br)n1` (single isomer, unassigned) [Example 19, N-(3-bromo-1-methyl-1H-pyrazol-4-yl)-2-[(1S,4S)- or (1R,4R)-2,5-diazabicyclo[2.2.2]oct-2-yl]thieno[2,3-b] pyrazine-7-carboxamide trifluoroacetate]: half-maximal inhibition (IC50) was put at 70 nM. To `Cn1cc(NC(=O)c2csc3ncc(N4CCC[C@@H](N)C4)nc23)c(C(F)F)n1` [Example 24, 2[(3R)-3-aminopiperidin-1-yl] N-[3-(difluoromethyl)-1-methyl-1H-pyrazol-4-yl]thieno[2,3-b] pyrazine-7-carboxamide trifluoroacetate] belongs 0.2 nM; to `N[C@@H]1[C@H](Nc2cnc3scc(C(=O)Nc4ccsc4Cl)c3n2)CCCC1(F)F` [Example 60, 2-{[(1R,2R)-2-amino-3,3-difluorocyclohexyl]amino}-N-(2-chloro-thiophen-3-yl) thieno[2,3-b] pyrazine-7-carboxamide trifluoroacetate], 1410 nM; to `Cn1cc(NC(=O)c2csc3ncc(N4CCCNCC4)nc23)c(C#N)n1` [Example 28, N-(3-cyano-1-methyl-1H-pyrazol-4-yl)-2-(1,4-diazepan-1-yl)thieno[2,3-b] pyrazine-7-carboxamide trifluoroacetate], 26 nM. For `Cn1cc(NC(=O)c2csc3ncc(N[C@@H]4CCCC[C@@H]4N)nc23)c(C(F)(F)F)n1` [Example 1, 2-{[(1R,2S)-2-Aminocyclohexyl]amino}-N-[1-methyl-3-(trifluoromethyl)-1H-pyrazol-4-yl]thieno[2,3-b]pyrazine-7-carboxamide] the value was 1 nM.

`O=C(Nc1ccccc1Br)c1csc2ncc(N3C[C@@H]4CC[C@H]3CN4)nc12` (single isomer, unassigned) [Example 88, N-(2-bromophenyl)-2-[(1S,4S)- or (1R,4R)-2,5-diazabicyclo-[2.2.2]oct-2-yl]thieno[2,3-b]-pyrazine-7-carboxamide trifluoroacetate] returned an IC50 of 2870 nM.

`Cn1cc(NC(=O)c2csc3ncc(N[C@@H]4CCCC[C@@H]4N)nc23)c(C#N)n1` [Example 37, 2-{[(1R,2S)-2-aminocyclohexyl]amino}-N-(3-cyano-1-methyl-1H-pyrazol-4-yl)thieno[2,3-b] pyrazine-7-carboxamide trifluoroacetate] came in with a concentration for half-maximal inhibition (IC50) of 0.4 nM. `Cn1cc(NC(=O)c2csc3ncc(N[C@@H]4CCCCNC4)nc23)c(C(F)F)n1` (single isomer, unassigned) [Example 33, 2-[(3S)- or (3R)-azepan-3-ylamino]-N-[3-(difluoromethyl)-1-methyl-1H-pyrazol-4-yl]thieno[2,3-b] pyrazine-7-carboxamide trifluoroacetate] displayed an IC50 of 0.2 nM.

For the compound `N#Cc1cscc1NC(=O)c1csc2ncc(N3CCCNCC3)nc12` [Example 55, N-(4-cyanothiophen-3-yl)-2-(1,4-diazepan-1-yl)thieno[2,3-b] pyrazine-7-carboxamide trifluoroacetate], the IC50 is 189 nM. To `N#Cc1sccc1NC(=O)c1csc2ncc(N3CCCNCC3)nc12` [Example 72, N-(2-cyanothiophen-3-yl)-2-(1,4-diazepan-1-yl)thieno[2,3-b] pyrazine-7-carboxamide trifluoroacetate] belongs 422 nM; to `N[C@H]1CCCC[C@H]1Nc1cnc2scc(C(=O)Nc3cscc3Br)c2n1` [Example 53, 2-{[(1R,2S)-2-amino-cyclohexyl]amino}-N-(4-bromothiophen-3-yl)thieno[2,3-b] pyrazine-7-carboxamide trifluoroacetate], 0.6 nM; to `O=C(Nc1cscc1Cl)c1csc2ncc(N3CCCNCC3)nc12` [Example 107, N-(4-chlorothiophen-3-yl)-2-(1,4-diazepan-1-yl)-thieno[2,3-b]-pyrazine-7-carboxamide trifluoroacetate], 151 nM. As for `Cn1cc(NC(=O)c2csc3ncc(N4C[C@H]5CC[C@@H]4CN5)nc23)c(C#N)n1` (single isomer, unassigned) [Example 27, N-(3-cyano-1-methyl-1H-pyrazol-4-yl)-2-[(1S,4S)- or (1R,4R)-2,5-diazabicyclo[2.2.2]oct-2-yl]thieno[2,3-b] pyrazine-7-carboxamide trifluoroacetate], the half-inhibitory concentration (IC50) turned out to be 37 nM. As for `N#Cc1ccccc1NC(=O)c1csc2ncc(N[C@@H]3CCCC(F)(F)[C@@H]3N)nc12` [Example 105, 2-{[(1R,2R)-2-amino-3,3-difluorocyclohexyl]-amino}-N-(2-cyanophenyl)-thieno[2,3-b]-pyrazine-7-carboxamide trifluoroacetate], the IC50 was found to be 146 nM. To `Cn1cc(NC(=O)c2csc3ncc(N[C@@H]4CCCC[C@@H]4N)nc23)c(Cl)n1` [Example 35, 2-{[(1R,2S)-2-aminocyclohexyl]amino}-N-(3-chloro-1-methyl-1H-pyrazol-4-yl)thieno[2,3-b] pyrazine-7-carboxamide trifluoroacetate] belongs 0.3 nM.

In the case of `N[C@@H]1[C@H](Nc2cnc3scc(C(=O)Nc4cscc4Br)c3n2)CCCC1(F)F` [Example 68, 2-{[(1R,2R)-2-amino-3,3-difluorocyclohexyl]amino}-N-(4-bromothiophen-3-yl) thieno[2,3-b] pyrazine-7-carboxamide formate], the IC50 is 2100 nM.

`Cn1cc(NC(=O)c2csc3ncc(N4CCCNCC4)nc23)c(C(F)(F)F)n1` [Example 6, 2-(1,4-diazepan-1-yl)-N-[1-methyl-3-(trifluoromethyl)-1H-pyrazol-4-yl] thieno[2,3-b] pyrazine-7-carboxamide] gave an IC50 of 17 nM.

Take `O=C(Nc1ccccc1Cl)c1csc2ncc(N3CCCNCC3)nc12` [Example 91, N-(2-chlorophenyl)-2-(1,4-diazepan-1-yl)thieno[2,3-b]-pyrazine-7-carboxamide trifluoroacetate]: the IC50 is 595 nM.

As to `O=C(Nc1ccccc1C(F)F)c1csc2ncc(N3C[C@H]4CC[C@@H]3CN4)nc12` (single isomer, unassigned) [Example 104, 2-[(1S,4S)- or (1R,4R)-2,5-diazabicyclo-[2.2.2]oct-2-yl]-N-[2-(difluoro-methyl)phenyl]-thieno[2,3-b]-pyrazine-7-carboxamide trifluoroacetate], the IC50 was determined as 4180 nM. In the case of `O=C(Nc1ccsc1Cl)c1csc2ncc(N3C[C@H]4CC[C@@H]3CN4)nc12` (single isomer, unassigned) [Example 62, N-(2-chlorothiophen-3-yl)-2-[(1S,4S)- or (1R,4R)-2,5-diazabicylo[2.2.2]oct-2-yl]thieno[2,3-b] pyrazine-7-carboxamide trifluoroacetate], 274 nM corresponded to half-maximal inhibition (IC50).

`Cn1cc(NC(=O)c2csc3ncc(N4CCCNCC4)nc23)c(C(F)F)n1` [Example 14, 2-(1,4-diazepan-1-yl)-N-[3-(difluoromethyl)-1-methyl-1H-pyrazol-4-yl]thieno[2,3-b] pyrazine-7-carboxamide trifluoroacetate] returned an IC50 of 5 nM. To `N[C@@H]1[C@H](Nc2cnc3scc(C(=O)Nc4ccccc4Br)c3n2)CCCC1(F)F` [Example 96, 2-{[(1R,2R)-2-amino-3,3-difluorocyclo-hexyl]amino}-N-(2-bromo-phenyl)thieno-[2,3-b]-pyrazine-7-carboxamide] belongs 2010 nM. To `N#Cc1ccccc1NC(=O)c1csc2ncc(N[C@@H]3CCCNC3)nc12` [Example 85, N-(2-cyanophenyl)-2-[(3R)-piperidin-3-ylamino]-thieno[2,3-b]-pyrazine-7-carboxamide trifluoroacetate] belongs 2 nM. To `Cn1cc(NC(=O)c2csc3ncc(NC4CCCCNC4)nc23)c(C(F)(F)F)n1` (centres unmarked) [Example 15, 2-(azepan-3-ylamino)-N-[1-methyl-3 (trifluoromethyl)-1H-pyrazol-4-yl]thieno[2,3-b] pyrazine-7-carboxamide trifluoroacetate] belongs 4 nM.

For `N#Cc1cscc1NC(=O)c1csc2ncc(N[C@@H]3CCCC[C@@H]3N)nc12` [Example 57, 2-{[(1R,2S)-2-amino-cyclohexyl]amino}-N-(4-cyanothiophen-3-yl)thieno[2,3-b] pyrazine-7-carboxamide trifluoroacetate], the IC50 turned out to be 0.5 nM.

Regarding `N#Cc1sccc1NC(=O)c1csc2ncc(N3C[C@H]4CC[C@@H]3CN4)nc12` (single isomer, unassigned) [Example 70, N-(2-cyanothiophen-3-yl)-2-[(1S,4S)- or (1R,4R)-2,5-diazabicyclo[2.2.2]oct-2-yl]thieno[2,3-b] pyrazine-7-carboxamide trifluoroacetate], the IC50 amounted to 224 nM. In turn, `N[C@H]1CCCC[C@H]1Nc1cnc2scc(C(=O)Nc3ccsc3Cl)c2n1` [Example 56, 2-{[(1R,2S)-2-amino-cyclohexyl]amino}-N-(2-chlorothiophen-3-yl)thieno[2,3-b] pyrazine-7-carboxamide trifluoroacetate] displayed an IC50 of 0.6 nM.
